According to patent publication US10765661B2, “Method for improving feed digestibility and growth performance” (DSM IP ASSETS B.V., priority 2015, dated 2020):
Like-named read-outs stand apart in the source and are kept apart here. Marks after values point to notes of the source that are not given here.

What was measured:
[1] = tested on: Male broiler (Ross 308) chicks; format: in vivo; conditions: main effect mean (factor: Yes)
From the text: The proteolytic enzyme (Ronozyme®ProAct) and Vitamin C (Staye®50) were provided in powder form and a ready to use formulation by DSM Nutritional Products.
Male broiler (Ross 308) chicks were obtained from a local hatchery as day-olds and reared in cage in an environmentally controlled room. On d 0, chicks were individually weighed and 640 birds were allocated on weight basis to 80 cages (8 chicks per cage). The 8 dietary treatments (Table 1) were then randomly assigned to 10 replicate cages each. Experimental diets were fed from 0-21 and 22-35 days.
During week 1, a broiler coccidiosis vaccine (Immucox, Pacificvet, Christchurch, New Zealand) was given via drinking water to all chicks.
The birds received 20-hours of fluorescent illumination and allowed free access to the diets and water. Birds were checked at least three times daily (9.00 am, […]) and any unusual aspect of bird behaviour or condition was recorded. Sick or injured animals were weighed and removed from the study.
The experimental design is a 2×2×2 factorial arrangement of treatments, with two basal control diets (positive control and negative control), two levels of enzyme (with and without) and two levels of vitamin C (with and without).
The two control diets, positive and negative, based on wheat and soybean meal, were mixed for each phase of the study (0-21 and 22-35 d) (Table 2). The PC and NC diets were then used to develop 8 dietary treatments by adding the ProAct enzyme and Vitamin C mixtures. All the diets were fed in pellet form.
Growth performance: Feed and water were available ad libitum during the 35 days experimental period. Body weights and feed intake were recorded on days 7, 14, 21, 28 and 35. Mortality was recorded daily. Feed per gain values were corrected for the body weight of any bird that died or culled during the course of the experiment.
The data were subjected to ANOVA using the General Linear Models procedure of SAS (2004). Significant differences were considered at P<0.05. When a significant F-test was detected, means were separated using the least significant difference test.

Ross 308 male broilers = test: Growth performance of broiler chickens fed two proteolytic enzymes supplemented with vitamin C (Example 3); format: in vivo; conditions: for FCR / FI / WG: NC diet, Vit. C level 300 mg/kg, alone or with the named enzyme (CIBENZA 350 mg/kg, ProAct 200 mg/kg feed)
Protocol: A total of 490 day old Ross 308 male broilers were randomly assigned to 7 treatments (6 experimental groups plus one control group) with 10 replicates of 7 birds per replicate. Six experimental groups with two levels of vitamin C (0 and 300 mg/kg feed) and three enzyme treatments: • no feed enzymes, • Novus CIBENZA (Bacillus licheniformis PWD-1 at levels of 350 mg/kg feed), • DSM RONOZYME® ProAct (at levels of 200 mg/kg feed), in a 2×3 factorial design plus one positive control. The diets of the positive control (PC) were based on wheat and soybean meal and were adequate in all nutrients. The other 6 experimental groups were fed with a negative control (NC) diet based also on wheat and soybean meal but containing less protein (97.5%) and digestible amino acids (95.5%) than the PC. The birds were fed starter (1-14 d) diets during the trial.
The birds were fed the starter (1-14 d) diets ad libitum and had free access to water throughout the trial. RONOZYME® NP (CT) and RONOZYME® WX at levels of 200 and 100 mg/kg feed respectively were included in each diet. […] After mixing, the feed was pelleted at 75-80° C.
All birds were reared in cages in an environmentally controlled room and received 23L:1D of lighting regime during the first week and 20L:4D afterward until the end of the trial. The temperature of the room was maintained at 32±1° C. on the day of arrival and adapted according to the age specific requirements of the chickens.
At d 4, a broiler coccidiosis vaccine (Coccivac B®, MSD, Canada) was given as a mild challenge to all birds via oral administration. Body weights and feed intake were recorded at weekly intervals. Mortality was recorded daily. The weight of the dead animals was used to adjust the feed conversion ratio (FCR) which were calculated by dividing total feed intake by weight gain of live plus weight of dead birds per cage, respectively.

[2] = 1-7 d, main effect mean of the 2x3 factorial (NC diet)
[3] = 1-14 d, main effect mean of the 2x3 factorial (NC diet)

## O=C1O[C@H]([C@@H](O)CO)C(O)=C1O [Vitamin C, L-ascorbic acid]
[1]; 1-21 d post-hatching
  Feed intake, main effect: 1437 g/bird
  Feed/gain, main effect: 1.43 g/g
  Weight gain, main effect: 1006 g/bird
[1]; 1-35 d post-hatching
  Feed intake, main effect: 3809 g/bird
  Feed/gain, main effect: 1.64 g/g
  Weight gain, main effect: 2349 g/bird
Ross 308 male broilers; 1-7 d
  FCR: 1.141
  FI: 157 g/bird
  WG: 137 g/bird
Ross 308 male broilers; [2]
  FCR, main effect: 1.156
  FI, main effect: 161 g/bird
  WG, main effect: 140 g/bird
Ross 308 male broilers; 1-7 d, main effect mean of the 2x3 factorial (NC diet), listed as Vit. C
  FCR, main effect: 1.156^A
Ross 308 male broilers; 1-14 d
  FCR: 1.354^a
  FI: 602 g/bird
  WG: 445 g/bird
Ross 308 male broilers; [3]
  FCR, main effect: 1.440
  FI, main effect: 635 g/bird
  WG, main effect: 443 g/bird
Ross 308 male broilers; 1-14 d, main effect mean of the 2x3 factorial (NC diet), listed as Vit. C
  FCR, main effect: 1.440^A
Ross 308 male broilers; d 1 to d 21, birds fed vitamin C vs. 1.516 without, P=0.080
  FCR, main effect: 1.478
